Literature values, collected in patent US20040038984A1, “Composition for male & female sexual arousal” (priority 2002, published 2004).

Conditions: following oral administration

## Cn1cc([S+](C)[O-])c(=O)c2ccc(F)cc21 (stereo not shown) [flosequinan]
  time of peak plasma concentrations: 1 to 2 h
